{"source": "patent US20210079443A1", "about": "“INDICATOR BAC[…] SELECTING AND […] EFFICACY OF THERAPEUTICS AND METHODS FOR USING SAME” (priority 2018, published 2021)", "test_in_all_cases": "Phage-Mediated Detection of Staphylococcus aureus", "type_in_all_cases": "cell-based", "key": {"[1]": {"system": "Staphylococcus aureus strain AR0483 (MRSA, CDC Panel)", "method": "(§1) Samples of methicillin-resistant S. aureus (MRSA) were primed by adding 135 μl of samples containing S. aureus to rich media. The rich media included sub-inhibitory antibiotic (cefoxitin) to allow for specific enrichment and induction of MRSA. Samples were incubated in rich media for 1-2 hours. Following the priming of the samples, additional cefoxitin was added to the media and samples were incubated for an additional 2 hours. Staphylococcus aureus-specific bacteriophage NanoLuc Indicator phage was added to the samples and incubated for 2 hours. Lysis buffer and NANO-GLO® reagent were added. Following 5 minutes of incubation, measurements of bioluminescence were taken using a GLOMAX® 96 instrument. A signal/background ratio ≥750 RLU indicated positive detection of S. aureus. A signal/background ratio of <750 RLU indicated the sample was negative for S. aureus."}, "[2]": {"system": "Staphylococcus aureus strain AR0472 (MRSA, CDC Panel)", "method": "as §1"}, "[3]": {"system": "Staphylococcus aureus strain AR0463 (MRSA, CDC Panel)", "method": "as §1"}, "[4]": {"system": "Staphylococcus aureus strain BAA-1720 (MRSA, ATCC)", "details": "detected CFU 16, cefoxitin 1.8 ug/mL", "method": "as §1"}, "[5]": {"system": "Staphylococcus aureus strain AR0473 (MRSA, CDC Panel)", "method": "as §1"}, "[6]": {"system": "Staphylococcus aureus strain AR0487 (MSSA, CDC Panel)", "method": "as §1"}, "[7]": {"system": "Staphylococcus aureus strain AR0481 (MRSA, CDC Panel)", "method": "as §1"}, "[8]": {"system": "Staphylococcus aureus strain BAA-2094 (MRSA, ATCC)", "method": "as §1"}, "[9]": {"system": "Staphylococcus aureus strain AR0490 (MSSA, CDC Panel)", "method": "as §1"}, "[10]": {"system": "Staphylococcus aureus strain AR0489 (MSSA, CDC Panel)", "method": "as §1"}, "[11]": {"system": "Staphylococcus aureus strain 12600 (MSSA, ATCC)", "method": "as §1"}, "[12]": {"system": "Staphylococcus aureus strain BAA-1721 (MSSA, ATCC)", "method": "as §1"}, "[13]": {"system": "Staphylococcus aureus strain AR0484 (MSSA, CDC Panel)", "method": "as §1"}}, "data": [{"compound": "CO[C@@]1(NC(=O)Cc2cccs2)C(=O)N2C(C(=O)O)=C(COC(N)=O)CS[C@@H]21", "note": "[Cefoxitin, cefoxitin]", "values": [{"measurement": "Cefoxitin Concentration 1 ug/mL (indicator phage luminescence signal)", "setting": "[1]; detected CFU 12, cefoxitin 1 ug/mL", "value": 39250, "unit": "RLU"}, {"measurement": "Cefoxitin Concentration 2 ug/mL (indicator phage luminescence signal)", "setting": "[1]; detected CFU 12, cefoxitin 2 ug/mL", "value": 24390, "unit": "RLU"}, {"measurement": "Cefoxitin Concentration 4 ug/mL (indicator phage luminescence signal)", "setting": "[1]; detected CFU 12, cefoxitin 4 ug/mL", "value": 9081, "unit": "RLU"}, {"measurement": "Cefoxitin Concentration 1.8 ug/mL (indicator phage luminescence signal)", "setting": "[2]; detected CFU 14, cefoxitin 1.8 ug/mL", "value": 2694, "unit": "RLU"}, {"measurement": "Cefoxitin Concentration 1 ug/mL (indicator phage luminescence signal)", "setting": "[2]; detected CFU 142, cefoxitin 1 ug/mL", "value": 72720, "unit": "RLU"}, {"measurement": "Cefoxitin Concentration 2 ug/mL (indicator phage luminescence signal)", "setting": "[2]; detected CFU 142, cefoxitin 2 ug/mL", "value": 19210, "unit": "RLU"}, {"measurement": "Cefoxitin Concentration 4 ug/mL (indicator phage luminescence signal)", "setting": "[2]; detected CFU 142, cefoxitin 4 ug/mL", "value": 240, "unit": "RLU"}, {"measurement": "Cefoxitin Concentration 1.8 ug/mL (indicator phage luminescence signal)", "setting": "[3]; detected CFU 28, cefoxitin 1.8 ug/mL", "value": 1941, "unit": "RLU"}, {"measurement": "Cefoxitin Concentration 1 ug/mL (indicator phage luminescence signal)", "setting": "[3]; detected CFU 265, cefoxitin 1 ug/mL", "value": 8987, "unit": "RLU"}, {"measurement": "Cefoxitin Concentration 2 ug/mL (indicator phage luminescence signal)", "setting": "[3]; detected CFU 265, cefoxitin 2 ug/mL", "value": 3377, "unit": "RLU"}, {"measurement": "Cefoxitin Concentration 4 ug/mL (indicator phage luminescence signal)", "setting": "[3]; detected CFU 265, cefoxitin 4 ug/mL", "value": 339, "unit": "RLU"}, {"measurement": "Cefoxitin Concentration 1.8 ug/mL (indicator phage luminescence signal)", "setting": "[4]", "value": 4034, "unit": "RLU"}, {"measurement": "Cefoxitin Concentration 1 ug/mL (indicator phage luminescence signal)", "setting": "[5]; detected CFU 219, cefoxitin 1 ug/mL", "value": 60000, "unit": "RLU"}, {"measurement": "Cefoxitin Concentration 2 ug/mL (indicator phage luminescence signal)", "setting": "[5]; detected CFU 219, cefoxitin 2 ug/mL", "value": 17500, "unit": "RLU"}, {"measurement": "Cefoxitin Concentration 4 ug/mL (indicator phage luminescence signal)", "setting": "[5]; detected CFU 219, cefoxitin 4 ug/mL", "value": 338, "unit": "RLU"}, {"measurement": "Cefoxitin Concentration 1 ug/mL (indicator phage luminescence signal)", "setting": "[6]; detected CFU 221, cefoxitin 1 ug/mL", "value": 10420, "unit": "RLU"}, {"measurement": "Cefoxitin Concentration 2 ug/mL (indicator phage luminescence signal)", "setting": "[6]; detected CFU 221, cefoxitin 2 ug/mL", "value": 167, "unit": "RLU"}, {"measurement": "Cefoxitin Concentration 4 ug/mL (indicator phage luminescence signal)", "setting": "[6]; detected CFU 221, cefoxitin 4 ug/mL", "value": 188, "unit": "RLU"}, {"measurement": "Cefoxitin Concentration 1 ug/mL (indicator phage luminescence signal)", "setting": "[7]; detected CFU 82, cefoxitin 1 ug/mL", "value": 150100, "unit": "RLU"}, {"measurement": "Cefoxitin Concentration 2 ug/mL (indicator phage luminescence signal)", "setting": "[7]; detected CFU 82, cefoxitin 2 ug/mL", "value": 109000, "unit": "RLU"}, {"measurement": "Cefoxitin Concentration 4 ug/mL (indicator phage luminescence signal)", "setting": "[7]; detected CFU 82, cefoxitin 4 ug/mL", "value": 27170, "unit": "RLU"}, {"measurement": "Cefoxitin Concentration 1 ug/mL (indicator phage luminescence signal)", "setting": "[8]; detected CFU 147, cefoxitin 1 ug/mL", "value": 252900, "unit": "RLU"}, {"measurement": "Cefoxitin Concentration 2 ug/mL (indicator phage luminescence signal)", "setting": "[8]; detected CFU 147, cefoxitin 2 ug/mL", "value": 96700, "unit": "RLU"}, {"measurement": "Cefoxitin Concentration 4 ug/mL (indicator phage luminescence signal)", "setting": "[8]; detected CFU 147, cefoxitin 4 ug/mL", "value": 1971, "unit": "RLU"}, {"measurement": "Cefoxitin Concentration 1 ug/mL (indicator phage luminescence signal)", "setting": "[9]; detected CFU 940, cefoxitin 1 ug/mL", "value": 40620, "unit": "RLU"}, {"measurement": "Cefoxitin Concentration 2 ug/mL (indicator phage luminescence signal)", "setting": "[9]; detected CFU 940, cefoxitin 2 ug/mL", "value": 254, "unit": "RLU"}, {"measurement": "Cefoxitin Concentration 4 ug/mL (indicator phage luminescence signal)", "setting": "[9]; detected CFU 940, cefoxitin 4 ug/mL", "value": 582, "unit": "RLU"}, {"measurement": "Cefoxitin Concentration 1 ug/mL (indicator phage luminescence signal)", "setting": "[10]; detected CFU 144, cefoxitin 1 ug/mL", "value": 30590, "unit": "RLU"}, {"measurement": "Cefoxitin Concentration 2 ug/mL (indicator phage luminescence signal)", "setting": "[10]; detected CFU 144, cefoxitin 2 ug/mL", "value": 188, "unit": "RLU"}, {"measurement": "Cefoxitin Concentration 4 ug/mL (indicator phage luminescence signal)", "setting": "[10]; detected CFU 144, cefoxitin 4 ug/mL", "value": 207, "unit": "RLU"}, {"measurement": "Cefoxitin Concentration 1.8 ug/mL (indicator phage luminescence signal)", "setting": "[11]; detected CFU 59, cefoxitin 1.8 ug/mL", "value": 508, "unit": "RLU"}, {"measurement": "Cefoxitin Concentration 1 ug/mL (indicator phage luminescence signal)", "setting": "[11]; detected CFU 406, cefoxitin 1 ug/mL", "value": 18310, "unit": "RLU"}, {"measurement": "Cefoxitin Concentration 2 ug/mL (indicator phage luminescence signal)", "setting": "[11]; detected CFU 406, cefoxitin 2 ug/mL", "value": 178, "unit": "RLU"}, {"measurement": "Cefoxitin Concentration 4 ug/mL (indicator phage luminescence signal)", "setting": "[11]; detected CFU 406, cefoxitin 4 ug/mL", "value": 196, "unit": "RLU"}, {"measurement": "Cefoxitin Concentration 1 ug/mL (indicator phage luminescence signal)", "setting": "[12]; detected CFU 197, cefoxitin 1 ug/mL", "value": 21900, "unit": "RLU"}, {"measurement": "Cefoxitin Concentration 2 ug/mL (indicator phage luminescence signal)", "setting": "[12]; detected CFU 197, cefoxitin 2 ug/mL", "value": 172, "unit": "RLU"}, {"measurement": "Cefoxitin Concentration 4 ug/mL (indicator phage luminescence signal)", "setting": "[12]; detected CFU 197, cefoxitin 4 ug/mL", "value": 164, "unit": "RLU"}, {"measurement": "Cefoxitin Concentration 1 ug/mL (indicator phage luminescence signal)", "setting": "[13]; detected CFU 525, cefoxitin 1 ug/mL", "value": 8875, "unit": "RLU"}, {"measurement": "Cefoxitin Concentration 2 ug/mL (indicator phage luminescence signal)", "setting": "[13]; detected CFU 525, cefoxitin 2 ug/mL", "value": 172, "unit": "RLU"}, {"measurement": "Cefoxitin Concentration 4 ug/mL (indicator phage luminescence signal)", "setting": "[13]; detected CFU 525, cefoxitin 4 ug/mL", "value": 182, "unit": "RLU"}]}]}
